“Also recorded” adds a separate entry of the source.
What was measured:
[1] = molecular target: T1, recombinant human enzyme Cdc25A (Homo sapiens, UniProt P30304); assay: Cdc25A phosphatase assay (OMFP substrate), inhibition of Cdc25A; type: biochemical; conditions: FIG. 1; inhibition calculated as a percentage of the solvent control
T1 construct: purchased Upstate Biotechnology (Lake Placid, N.Y.)
T1 sequence (P30304 1-524): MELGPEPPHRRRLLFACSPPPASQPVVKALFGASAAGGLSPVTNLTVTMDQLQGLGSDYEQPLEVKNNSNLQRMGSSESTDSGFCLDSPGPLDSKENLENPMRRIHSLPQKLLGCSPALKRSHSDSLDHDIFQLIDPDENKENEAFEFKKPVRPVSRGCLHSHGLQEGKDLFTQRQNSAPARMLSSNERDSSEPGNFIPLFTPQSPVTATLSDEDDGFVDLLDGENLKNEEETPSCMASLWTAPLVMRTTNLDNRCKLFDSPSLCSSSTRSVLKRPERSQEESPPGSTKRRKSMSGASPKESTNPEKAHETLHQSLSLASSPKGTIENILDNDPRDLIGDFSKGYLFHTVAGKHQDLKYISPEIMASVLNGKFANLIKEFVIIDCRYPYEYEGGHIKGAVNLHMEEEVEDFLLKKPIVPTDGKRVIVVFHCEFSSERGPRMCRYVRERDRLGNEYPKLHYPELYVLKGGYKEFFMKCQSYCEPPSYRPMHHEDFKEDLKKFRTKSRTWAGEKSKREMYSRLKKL
Method: Therefore, one method of […] screening of the compounds for anti-cancer activity is to test the activity of a particular compound for the ability to inhibit Cdc 25-type phosphatases. The results of one such test are shown in Example 161 below, and FIG. 1.
The phosphatase assay was performed in a 96-well microtiter plate using recombinant human enzyme Cdc25A purchased from Upstate Biotechnology (Lake Placid, N.Y.). Stock solutions of the test compounds were prepared in DMSO. Five μl of suitable dilutions of the compounds were added to the assay. The final volume of the assay was 100 μl. Twenty units of Cdc25A were pre-incubated with the test compounds at 37° C. for 10 min in the reaction mixture containing 100 mM Tris-HCl, pH 8.2, 40 mM NaCl, 1 mM DTT and 20% glycerol. The reaction was initiated by addition of the enzyme substrate […] (OMFP; Sigma, St. Louis, Mo.) at a final concentration of 40 μM and incubated at room temperature for 1 hour. This substrate allows fluorometric determination of enzyme activity. OMFP is readily metabolized to the fluorescent O-methylfluorescein by the enzyme Cdc25A, thus the absorbance of each reaction sample was determined at 477 nm using a plate reader (SpectraMax 340, Molecular Devices, Sunnyvale, Calif.). […] Inhibition of Cdc25A activity by test compounds was calculated as a percentage of the solvent control.

[2] = system: breast cancer cell line MDA-MB468; assay: MTT assay, human breast cancer cells; type: cell-based; conditions: concentrations in the range of 10^−7-10^−5 M or higher, FIGS. 2, 17
Source text: (§1) The anti-cancer activity of some of the compounds described herein have been tested in one type of such in vitro assay, as described in the examples herein, using a microculture assay with 3-(4,5-dimethylthiazol-2-yl)-2,5-diphenyltetrazolium bromide (“MTT”). This assay has an advantage over in vivo assay in that results are obtained within a week as opposed to several months. The assay can be carried out in 96-well microtiter plates. The MTT assay is based on the production of a dark blue formazan product by dehydrogenase in the mitochondria of live tumor cells after exposure to drug for 6 days [M. C. Alley, D. A. Scudiero, A. Monks, M. L. Hursey, M. J. Czerwinski, D. L. Fine, B. J. Abbout, J. G. Mayo, R. H. Shoemaker and M. R. Boyd, Cancer Res., 48, 589, 1988]. Thus, only live cells are stained and can be measured at 595 nm. Anti-cancer activity can be reported as percent of the tumor cell growth in the presence of compound at a defined dose compared to control/vehicle treated tumor cells. The results of some such screening assays are given in Examples 162a and 162b, and in FIGS. 2, 3, and 15-18.
(§2) The following human cancer cell lines were used to detect anti-cancer activity in the compounds of the invention.
The breast cancer cell line MDA-MB468 served to detect anti-breast cancer activity.
(§3) Cell lines were purchased from American Type Culture Collection (ATCC).
(§4) The cancer cell cultures were grown as recommended by the ATTC manuals. A549 cells and BX-PC-3 were grown in DME Dulbecco's modified Eagle's medium containing 4500 mg/L glucose; 4 mM L-glutamine; 10 U/ml Pen-G; 10 mcg/ml […] and 10% fetal calf serum (FCS). PC-3 and MDA-MB468 cells were grown in RPMI medium 1640 containing 2 mM L-glutamine; 10 U/ml Pen-G; 10 mcg/ml Streptomycin and 10% FCS. Cells were kept at 6% CO2 and 37° C. Cells were seeded on day zero in 96-well format tissue culture plates at suitable densities the day before starting treatment, in the media indicated above.
(§5) On day one, the compounds of the invention were added to the culture media of growing cells, containing 10% FCS. The cell media contained the compounds of the invention at one of six concentrations: […], 5×10^−8, 1×10^−7, 5×10^−7, 1×10^−6, and 1×10^−5M. 0.1% DMSO was used as vehicle control, and never exceeded 0.1% final concentration. On day four the media was removed and replaced with fresh media containing the compounds of the invention and FCS.
(§6) The assay is based on the cleavage of the yellow tetrazolium salt MTT to purple formazan crystals by dehydrogenase activity in active mitochondria. This conversion only occurs in living cells with intact/functional mitochondria.
(§7) On day five 10 μl of 5 mg/ml MTT dye are added to each well containing a cell culture. Cells are incubated for additional 4 hours at 6% CO2 and 37° C. Reaction is then stopped by adding 100 μl/well of a solubilization solution consisting of 10% Sodium Dodecyl Sulfate (SDS) and 10 mM HCl On day 6 the formazan crystals formed are solubilized and the resulting colored solution is quantified using a scanning multiwell spectrophotometer at a wavelength of 595 nm.

[3] = system: prostate cancer cell line PC-3; assay: MTT assay, human prostate cancer cells; type: cell-based; conditions: concentrations in the range of 10^−7-10^−5 M or higher, FIGS. 2, 16
Source text: as §1, §2
The prostate cancer cell line PC-3 was used to detect […]
as §3, §4, §5, §6, §7

[4] = system: non-small-cell lung cancer cell line A549; assay: MTT assay, human non-small-cell lung cancer cells; type: cell-based; conditions: concentrations in the range of 10^−7-10^−5 M or higher, FIGS. 3, 15
Source text: as §1, §2
The non-small-cell lung cancer cell line A549 was used to detect anti-lung cancer activity
as §3, §4, §5, §6, §7

[5] = system: pancreatic cancer cell line BX-PC-3; assay: MTT assay, human pancreatic cancer cells; type: cell-based; conditions: concentrations in the range of 10^−7-10^−5 M or higher, FIGS. 3, 18
Source text: as §1, §2
The pancreatic cancer cell line BX-PC-3 was used to detect anti-pancreatic cancer activity.
as §3, §4, §5, §6, §7

- selective inhibition of Cdc25 as compared to the dual specificity phosphatase MKP-1 [1]: selective inhibition of Cdc25
- melting point: 311 to 312 °C
Structure (SMILES): O=C1N=C(N2CCCCC2)S/C1=C\c1cccc(-c2ccc(O)c(C34CC5CC(CC(C5)C3)C4)c2)c1 [Compound 3, 5-[3-(3-Adamantan-1-yl-4-hydroxy-phenyl)benzylidene]-2-piperidin-1-yl-thiazol-4-one]
- anticancer cell activity / killing of breast cancer cells [2]: kill significant percentages of the cells; also recorded: strong anticancer cell activity
- anticancer cell activity / killing of prostate cancer cells [3]: kill significant percentages of the cells; also recorded: strong anticancer cell activity
- anticancer cell activity / killing of non-small-cell lung cancer cells [4]: kill significant percentages of the cells; also recorded: strong anticancer all activity
- anticancer cell activity / killing of pancreatic cancer cells [5]: kill significant percentages of the cells; also recorded: strong anticancer all activity

From patent US20040097566A1, “2-Substituted thiazolidinone and oxazolidinone derivatives for the inhibition of phosphatases and the treatment of cancer” (priority 2001, published 2004)
